# Test results published in ChEMBL document CHEMBL1909046, “DrugMatrix in vitro pharmacology data”.
# Assays:
# [1] = molecular target: cGMP-specific 3',5'-cyclic phosphodiesterase (Homo sapiens, UniProt O76074); test: DRUGMATRIX: Phosphodiesterase PDE5 enzyme inhibition (substrate: [3H]cGMP + cGMP); assay type: tissue-based; conditions: platelet; Not Active = under 50% inhibition at 10 µM
# Adenosine receptor A1 = molecular target: T1, Adenosine receptor A1 (Homo sapiens, UniProt P30542); assay type: cell membranes, CHO, Membrane; conditions: cho;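 note: radioligand binding assay at the adenosine A1 receptor, with DPCPX serving as the labelled ligand; in other assays of this panel Not Active means under 50% inhibition at 10 µM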
# T1 sequence (P30542 whole entry): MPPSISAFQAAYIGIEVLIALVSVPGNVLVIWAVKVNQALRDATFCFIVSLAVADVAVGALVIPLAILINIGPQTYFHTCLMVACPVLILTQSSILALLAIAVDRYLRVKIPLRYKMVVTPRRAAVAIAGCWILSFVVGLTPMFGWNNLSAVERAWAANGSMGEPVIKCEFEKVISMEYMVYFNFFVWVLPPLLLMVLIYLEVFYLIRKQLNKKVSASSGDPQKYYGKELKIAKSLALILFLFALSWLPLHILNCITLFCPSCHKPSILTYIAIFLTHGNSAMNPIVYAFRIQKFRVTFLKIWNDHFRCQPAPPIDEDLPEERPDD
# [2] = molecular target: Sigma non-opioid intracellular receptor 1 (Homo sapiens, UniProt Q99720); test: DRUGMATRIX: Sigma1 radioligand binding (ligand: [3H] Haloperidol); assay type: cell membranes, Jurkat, Membrane; conditions: Not Active = under 50% inhibition at 10 µM
# Mu-type opioid receptor = Mu-type opioid receptor (Homo sapiens, UniProt P35372); test: DRUGMATRIX: Opiate mu (OP3, MOP) radioligand binding (ligand: [3H] Diprenorphine); assay type: cell membranes, CHO-K1, Membrane; conditions: Not Active = under 50% inhibition at 10 µM
# [3] = molecular target: T2, Vasoactive intestinal polypeptide receptor 1 (Homo sapiens, UniProt P32241); assay type: cell membranes, Membrane; conditions: ht-29; note: in other assays of this panel Not Active means under 50% inhibition at 10 µM
# T2 sequence (P32241 whole entry): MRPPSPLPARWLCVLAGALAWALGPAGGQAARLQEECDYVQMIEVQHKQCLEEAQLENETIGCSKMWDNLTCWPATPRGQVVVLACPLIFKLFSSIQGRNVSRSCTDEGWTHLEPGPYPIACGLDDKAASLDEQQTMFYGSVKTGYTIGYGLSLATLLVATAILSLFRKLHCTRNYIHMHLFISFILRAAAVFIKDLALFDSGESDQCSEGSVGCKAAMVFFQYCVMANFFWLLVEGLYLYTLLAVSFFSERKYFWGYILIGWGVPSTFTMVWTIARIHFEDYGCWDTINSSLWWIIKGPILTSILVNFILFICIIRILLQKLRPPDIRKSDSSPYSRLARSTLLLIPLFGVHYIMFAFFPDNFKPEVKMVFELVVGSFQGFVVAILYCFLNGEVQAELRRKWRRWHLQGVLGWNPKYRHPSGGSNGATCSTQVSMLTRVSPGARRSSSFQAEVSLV
# [4] = DRUGMATRIX: Leukotriene, BLT (LTB4) radioligand binding (ligand: [3H]LTB4); assay type: cell membranes, Membrane; conditions: u-937; Not Active = under 50% inhibition at 10 µM
# Melanocortin receptor 3 = Melanocortin receptor 3 (Homo sapiens, UniProt P41968); assay type: cell membranes, Membrane; conditions: hek293; note: in other assays of this panel Not Active means under 50% inhibition at 10 µM
# Chain of Melanocortin receptor 3 (P41968 whole entry): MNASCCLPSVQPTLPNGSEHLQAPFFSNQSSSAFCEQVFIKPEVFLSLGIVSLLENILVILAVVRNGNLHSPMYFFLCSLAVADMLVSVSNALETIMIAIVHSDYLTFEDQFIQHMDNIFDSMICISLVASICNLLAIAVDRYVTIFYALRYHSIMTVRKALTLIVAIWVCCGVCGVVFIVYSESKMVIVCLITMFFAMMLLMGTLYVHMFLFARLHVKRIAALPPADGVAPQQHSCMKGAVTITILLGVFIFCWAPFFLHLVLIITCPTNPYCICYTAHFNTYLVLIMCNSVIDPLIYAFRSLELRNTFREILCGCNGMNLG
# Chain of Mu-type opioid receptor (P35372 whole entry): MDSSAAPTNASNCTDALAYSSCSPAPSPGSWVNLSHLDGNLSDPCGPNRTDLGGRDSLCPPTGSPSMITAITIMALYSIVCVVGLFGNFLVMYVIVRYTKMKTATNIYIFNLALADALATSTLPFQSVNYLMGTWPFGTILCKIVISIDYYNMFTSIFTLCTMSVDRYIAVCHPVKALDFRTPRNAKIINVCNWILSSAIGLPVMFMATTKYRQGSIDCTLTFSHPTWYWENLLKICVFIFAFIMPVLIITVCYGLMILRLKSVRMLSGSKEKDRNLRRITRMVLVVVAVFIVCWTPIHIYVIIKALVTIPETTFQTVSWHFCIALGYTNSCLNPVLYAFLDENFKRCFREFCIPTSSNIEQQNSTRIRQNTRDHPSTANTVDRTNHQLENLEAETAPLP
# Chain of Sigma non-opioid intracellular receptor 1 (Q99720 whole entry): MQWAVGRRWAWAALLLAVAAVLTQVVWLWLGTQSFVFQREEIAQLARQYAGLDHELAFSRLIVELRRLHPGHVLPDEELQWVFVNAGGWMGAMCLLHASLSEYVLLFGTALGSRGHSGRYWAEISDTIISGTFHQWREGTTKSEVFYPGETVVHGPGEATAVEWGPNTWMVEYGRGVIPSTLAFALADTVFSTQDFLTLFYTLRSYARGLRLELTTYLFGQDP
SMILES,IC50 [1],IC50 (Adenosine receptor A1),IC50 ([2]; jurkat),IC50 (Mu-type opioid receptor; cho-k1),IC50 [3],IC50 [4],Ki [4],IC50 (Melanocortin receptor 3),IC50 ([2]; read-out: IC50) [µM],Ki ([2]; read-out: Ki) [µM],Ki (Mu-type opioid receptor) [µM],IC50 (Mu-type opioid receptor; read-out: IC50) [µM]
CN1C(=O)CN=C(c2ccccc2)c2cc(Cl)ccc21 [DIAZEPAM],Not Active,Not Active,Not Active,Not Active,Not Active,Not Active,Not Active,Not Active,–,–,–,–
CN1C[C@H](C(=O)N[C@]2(C)O[C@@]3(O)[C@@H]4CCCN4C(=O)[C@H](Cc4ccccc4)N3C2=O)C[C@@H]2c3cccc4[nH]cc(c34)C[C@H]21 [DIHYDROERGOTAMINE],Not Active,Not Active,Not Active,Not Active,Not Active,Not Active,Not Active,Not Active,–,–,–,–
Cc1c(N(C)CS(=O)(=O)[O-])c(=O)n(-c2ccccc2)n1C.[Na+] [DIPYRONE SODIUM],Not Active,Not Active,Not Active,Not Active,Not Active,Not Active,Not Active,Not Active,–,–,–,–
CC(CCc1ccc(O)cc1)NCCc1ccc(O)c(O)c1 (stereo unspecified) [DOBUTAMINE],Not Active,Not Active,–,Not Active,Not Active,Not Active,Not Active,Not Active,2.52,1.06,–,–
CCn1cc(C(=O)O)c(=O)c2cc(F)c(N3CCNCC3)nc21 [ENOXACIN],Not Active,Not Active,Not Active,Not Active,Not Active,Not Active,Not Active,Not Active,–,–,–,–
CCC(=O)O[C@H]1[C@H](O[C@@H]2[C@@H](C)[C@H](O[C@H]3C[C@@](C)(OC)[C@@H](O)[C@H](C)O3)[C@@H](C)C(=O)O[C@H](CC)[C@@](C)(O)[C@H](O)[C@@H](C)C(=O)[C@H](C)C[C@@]2(C)O)O[C@H](C)C[C@@H]1N(C)C [ERYTHROMYCIN PROPIONATE],Not Active,Not Active,Not Active,Not Active,Not Active,Not Active,Not Active,Not Active,–,–,–,–
C=C(CC)C(=O)c1ccc(OCC(=O)O)c(Cl)c1Cl [ETHACRYNIC ACID],Not Active,Not Active,Not Active,Not Active,Not Active,Not Active,Not Active,Not Active,–,–,–,–
C#C[C@]1(O)CC[C@H]2[C@@H]3CCc4cc(O)ccc4[C@H]3CC[C@@]21C [ETHINYL ESTRADIOL],Not Active,Not Active,Not Active,–,Not Active,Not Active,Not Active,Not Active,–,–,10.9,26.8
OCCO [ETHYLENE GLYCOL],Not Active,Not Active,Not Active,Not Active,Not Active,Not Active,Not Active,Not Active,–,–,–,–
CC(=O)OCC(CCn1cnc2cnc(N)nc21)COC(C)=O [FAMCICLOVIR],Not Active,Not Active,Not Active,Not Active,Not Active,Not Active,Not Active,Not Active,–,–,–,–
O=C(O)Cc1ccc(-c2ccccc2)cc1 [FELBINAC],Not Active,Not Active,Not Active,Not Active,Not Active,Not Active,Not Active,Not Active,–,–,–,–
CCOC(=O)C1=C(C)NC(C)=C(C(=O)OC)C1c1cccc(Cl)c1Cl (stereo unspecified) [FELODIPINE],Not Active,Not Active,Not Active,Not Active,Not Active,Not Active,Not Active,Not Active,–,–,–,–
CC(C(=O)O)c1ccc(-c2ccccc2)c(F)c1 (stereo unspecified) [FLURBIPROFEN],Not Active,Not Active,Not Active,Not Active,Not Active,Not Active,Not Active,Not Active,–,–,–,–
